Experimental data published in patent US10828317B2, “Method of treating bacterial infections” (priority 2016, dated 2020).
Where “and” joins values, the source holds several entries; their conditions need not be identical. Equal values may be shown once. Read-outs that look alike come from different tables or passages of the source.

Columns and labels:
[1] = system: A. baumannii EN007; test: MIC, WT (EN007 = EN0007); format: cell-based, Acinetobacter baumannii
[2] = system: E. coli; test: Murine peritonitis model; format: in vivo, mice; parameters: score at sampling: scale not given here
[3] = system: K. pneumoniae EN0143; test: MIC, ESBL (SHV-12); format: cell-based; details: Klebsiella pneumoniae, read-out: MIC
[4] = system: K. pneumoniae EN010; test: MIC, WT; format: cell-based, Klebsiella pneumoniae; details: Klebsiella pneumoniae, read-out: MIC
[5] = system: K. pneumoniae EN0436; test: MIC, colistinR; format: cell-based; details: Klebsiella pneumoniae, read-out: MIC
[6] = system: E. coli EN0134; test: MIC, AmpC (CMY-4); format: cell-based; details: Escherichia coli, read-out: MIC
[7] = system: E. coli EN0138; test: MIC, ESBL (CTX-M-9); format: cell-based; details: Escherichia coli, EN0138, combination AZT+trimethoprim+uridine, Table 17B; read-out: MIC
[8] = system: S. typhimurium EN0466; test: MIC; format: cell-based; details: Salmonella enterica
[9] = system: K. oxytoca EN0392; test: MIC; format: cell-based; details: Klebsiella oxytoca
[10] = system: Helicobacter pylori APV00918; test: MIC; format: cell-based; details: Helicobacter pylori, APV00918, combination FdUrd+trimethoprim+uridine, Table 22A
Source text: (§1) Inhibition of Heliobacter is important in view of increasing resistance and its association to gastric cancer.

[11] = system: K. pneumoniae EN0437; test: MIC, colistinR; format: cell-based; details: Klebsiella pneumoniae, read-out: MIC
[12] = system: K. pneumoniae EN0142; test: MIC, OXA-48, CTX-M-15; format: cell-based; details: Klebsiella pneumoniae, EN0142, combination didanosine+trimethoprim+uridine, Table 20
[13] = system: E. coli strain no 2; test: MIC vs E. coli LMG 15862, penicillin resistant; details: Escherichia coli
[14] = system: K. pneumoniae EN0262; test: MIC, ESBL (+), KPC+; format: cell-based
[15] = system: K. pneumoniae EN0233; test: MIC; format: cell-based; details: Klebsiella pneumoniae, read-out: MIC
[16] = system: Helicobacter pylori ATTC43504; test: MIC; format: cell-based; details: Helicobacter pylori, Table 22A, read-out: MIC
Source text: as §1

[17] = system: S. flexneri APV00906; test: microbe, parasite or virus in culture; format: cell-based; details: Shigella flexneri, APV00906
Source text: as §1

[18] = Infusion of 1-12 g/sq. m., Leyva et al, 1984; cited from earlier work
[19] = Acinetobacter baumannii, EN007, Combination 1 AZT+trimethoprim+uridine, Table 16, read-out: MIC
[20] = Acinetobacter baumannii, EN007, Combination 2 AZT+trimethoprim+uridine+thymidine, Table 16, read-out: MIC
[21] = Acinetobacter baumannii, EN007, combination AZT+trimethoprim+uridine, Table 6, read-out: MIC
[22] = Acinetobacter baumannii, EN007, combination FdUrd+trimethoprim+uridine, Table 8, read-out: MIC
[23] = Acinetobacter baumannii, EN007, combination didanosine+trimethoprim+uridine, Table 10, read-out: MIC
[24] = combination AZT+trimethoprim+uridine, Table 17B
[25] = combination FdUrd+trimethoprim+uridine, Table 19
[26] = combination didanosine+trimethoprim+uridine, Table 20
[27] = Trimethoprim 30 mg/kg, per mouse
[28] = EN0134, combination didanosine+trimethoprim+uridine, Table 20
[29] = Combination 1 AZT+trimethoprim+uridine, Table 16
[30] = combination AZT+trimethoprim+uridine, Table 6
[31] = combination FdUrd+trimethoprim+uridine, Table 8
[32] = EN0392, Combination 1 AZT+trimethoprim+uridine, Table 16
[33] = EN0392, combination AZT+trimethoprim+uridine, Table 6
[34] = EN0392, combination FdUrd+trimethoprim+uridine, Table 8

With `COc1cc(Cc2cnc(N)nc2N)cc(OC)c1OC` [Trimethoprim, trimethoprim] the MIC [1, 19] was > 4 µg/mL, the MIC [1, 20] was > 4 µg/mL and the MIC [1, 21] was > 4 µg/mL. The MIC [1, 22] was > 8 µg/mL, the MIC [1, 23] was > 8 µg/mL and the MIC [1, 24] was >4 µg/mL. The MIC [1, 25] was >8 µg/mL, the MIC [1, 26] was >8 µg/mL and the “CFU/ml PF” value [2, 27] was 9.50E+03 CFU/ml and 1.60E+06 CFU/ml and 3.25E+05 CFU/ml and 4.75E+05 CFU/ml. For the same molecule, the “log CFU/ml PF” value [2, 27] was 3.98 log CFU/ml and 6.20 log CFU/ml and 5.51 log CFU/ml and 5.68 log CFU/ml, the score at sampling [2, 27] was 1 and the “inhibition in mice infected with E. coli (in words)” value ([2]; murine peritonitis model) was “slight inhibition”. The MIC ([3]; EN0143, combination AZT+trimethoprim+uridine, Table 17B) was > 4 µg/mL, the MIC ([3]; EN0143, combination FdUrd+trimethoprim+uridine, Table 19) was > 8 µg/mL and the MIC ([3]; EN0143, combination didanosine+trimethoprim+uridine, Table 20) was > 8 µg/mL. For the same molecule, the MIC ([4]; EN010, Combination 2 AZT+trimethoprim+uridine+thymidine, Table 16) was 1 µg/mL, the MIC ([4]; EN010, combination AZT+trimethoprim+uridine, Table 6) was 0.5 µg/mL and the MIC ([4]; EN010, combination FdUrd+trimethoprim+uridine, Table 8) was 1 µg/mL. For the same molecule, the MIC ([4]; EN010, combination didanosine+trimethoprim+uridine, Table 10) was 1 µg/mL, the MIC ([5]; EN0436, combination FdUrd+trimethoprim+uridine, Table 19) was 0.5 µg/mL and the MIC ([5]; EN0436, combination didanosine+trimethoprim+uridine, Table 20) was 0.5 µg/mL. The MIC ([6]; EN0134, combination FdUrd+trimethoprim+uridine, Table 19) was > 8 µg/mL, the MIC [6, 28] was > 8 µg/mL and the MIC [7] was 0.016 µg/mL. It also gave an MIC [8, 29] of 0.064 µg/mL, an MIC ([8]; Combination 2 AZT+trimethoprim+uridine+thymidine, Table 16) of 0.5 µg/mL and an MIC [8, 30] of 0.06 µg/mL. For the same molecule, the MIC [8, 31] was 0.25 µg/mL, the MIC ([8]; combination didanosine+trimethoprim+uridine, Table 10) was 0.5 µg/mL and the MIC [9, 32] was 0.064 µg/mL. The MIC ([9]; EN0392, Combination 2 AZT+trimethoprim+uridine+thymidine, Table 16) was 0.5 µg/mL, the MIC [9, 33] was 0.06 µg/mL and the MIC [9, 34] was 0.25 µg/mL. The MIC ([9]; EN0392, combination didanosine+trimethoprim+uridine, Table 10) was 0.5 µg/mL, the MIC [10] was 0.125 µg/mL and the MIC ([11]; EN0437, combination AZT+trimethoprim+uridine, Table 17B) was > 4 µg/mL. For the same molecule, the MIC ([11]; EN0437, combination FdUrd+trimethoprim+uridine, Table 19) was > 8 µg/mL, the MIC ([11]; EN0437, combination didanosine+trimethoprim+uridine, Table 20) was > 8 µg/mL and the MIC [12] was > 8 µg/mL. The MIC ([13]; NO2, read-out: MIC FdUrd/Trimethoprim (1:2), uridine 10 μg/ml, thymidine 10 μM) was > 40 µg/mL, the MIC ([13]; NO2, read-out: MIC FdUrd/Trimethoprim (1:2), uridine 100 μg/ml, thymidine 10 μM) was > 40 µg/mL and the MIC ([14]; Klebsiella pneumoniae, EN0262, combination AZT+trimethoprim+uridine, Table 17B and 18, read-out: MIC) was 0.5 µg/mL. The MIC ([14]; Klebsiella pneumoniae, EN0262, combination FdUrd+trimethoprim+uridine, Table 19 and 21, read-out: MIC) was 4 µg/mL, the MIC ([14]; Klebsiella pneumoniae, EN0262, combination didanosine+trimethoprim+uridine, Table 20 and 21, read-out: MIC) was 4 µg/mL and the MIC ([14]; combination AZT+trimethoprim+uridine, Table 17B and 18) was 0.5 µg/mL. It also gave an MIC ([14]; combination FdUrd+trimethoprim+uridine, Table 19 and 21) of 4 µg/mL, an MIC ([14]; combination didanosine+trimethoprim+uridine, Table 20 and 21) of 4 µg/mL and an MIC ([15]; EN0233, combination FdUrd+trimethoprim+uridine, Table 19) of 1 µg/mL. The MIC ([15]; EN0233, combination didanosine+trimethoprim+uridine, Table 20) was 2 µg/mL.

With `O=c1ccn([C@@H]2O[C@H](CO)[C@@H](O)[C@H]2O)c(=O)[nH]1` [Uridine, uridine] the MIC [1, 19] was > 400 µg/mL, the MIC [1, 20] was > 400 µg/mL and the MIC [1, 21] was > 1000 µg/mL. The MIC [1, 22] was > 400 µg/mL, the MIC [1, 23] was > 400 µg/mL and the MIC [1, 24] was >400 µg/mL. For the same molecule, the MIC [1, 25] was >400 µg/mL, the MIC [1, 26] was >400 µg/mL and the MIC [6, 28] was > 400 µg/mL. For the same molecule, the MIC [8, 29] was 6.4 µg/mL, the MIC [8, 30] was 16 µg/mL and the MIC [8, 31] was 13 µg/mL. It also gave an MIC [9, 32] of 6.4 µg/mL, an MIC [9, 33] of 16 µg/mL and an MIC [9, 34] of 13 µg/mL. The MIC ([16]; ATTC43504, combination AZT+trimethoprim+uridine) was 13 µg/mL, the MIC ([16]; ATTC43504, combination FdUrd+trimethoprim+uridine) was 6 µg/mL and the MIC [17] was > 400 µg/mL. The MIC [12] was > 400 µg/mL and the plasma levels [18] was “up to 500 μg/ml”.
